The subject of data set [1] is MDA-MB-435S human breast cancer cells. The experiment in a line: MTT assay, proliferation of MDA-MB-435S cells. The format is cell-based. The settings on record: 72 h. An outline of the steps:
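MDA-MB-435S cells were seeded at 3000/well, left to adhere overnight, then exposed for 72 h at 37 °C, 5% CO2 to six graded compound concentrations in triplicate. Read-out was MTT (3 h), with formazan dissolved in DMSO and absorbance at 550/690 nm. Survival is relative to DMSO vehicle, and IC50 comes from the survival–concentration curve.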

The subject of data set [2] is SGC-7901 (Gastric Cancer). The data set is described as follows: SRB assay, SGC-7901. It is filed as cell-based. Conditions: Homo sapiens, 72 h, read-out: IC50 (μM) (mean ± SD). On the procedure:
(§1) Experimental method: The antineoplasmic activities in vitro of the compounds were determined by SRB assay. The detailed procedure was as follows. The cells in the logarithmic growth phase were inoculated on a 96-well microculture plate with a suitable density (100 μl/well), and allowed to attach overnight, followed by addition of the compound at different concentrations to be treated for 72 h. For each concentration, the test was carried out in triplicate wells, and included control wells containing the aqueous medium of normal saline and a blank well containing all medium without cells for zeroing. After cultured overnight, the cells were treated with the compound at different concentrations for 72 h. After the treatment, the culture medium was removed, and the cells were fixed with 10% (wt/vol) trichloroacetic acid (100 μL/well) at 4° C. for 1 h. The cells were then washed with distilled water for 5 times, and died at room temperature, followed by addition of a SRB solution (4 mg/mL, dissolved in 1% glacial acetic acid) at 100 μL/well. The cells were incubated and stained at room temperature for 15 min, then washed with 1% glacial acetic acid for 5 times to remove the uncombined SRB, and died at room temperature. 100 μL of 10 mM Tris solution was added in each well, and the Optical Density (OD) were measured at a wavelength of 560 nm on a VERSMax ELISA Reader (Molecule Devices). The growth inhibition of the compound against tumor cells was calculated according to the following equation: Growth inhibition (%)=(ODcontrol−ODtreated)/ODcontrol×100%.
(§2) IC50 (the concentration of the sample compound that is required for 50% inhibition of cell growth) was calculated by using the Logit method based on the measurement, and each test was repeated for 3 times to calculate the mean value and standard deviation.
(Sulforhodamine B stains cellular protein and so reports cell mass.)

The next data set deals with DU145 (Prostatic Cancer). The data set is described as follows: SRB assay, DU145. Conditions: Homo sapiens, DU-145, 72 h, read-out: IC50 (μM) (mean ± SD). The format is cell-based. As for the experimental part:
as §1, §2

For data set [3], the system named is HPAF-II (Pancreatic Cancer). The experiment in a line: SRB assay, HPAF-II. It is filed as cell-based. The settings on record: Homo sapiens, 72 h, read-out: IC50 (μM) (mean ± SD). On the procedure:
as §1, §2

Data set [4] has as its system human breast cancer cells MDA-MB-435 transplanted on nude mice. Conditions: mouse, in vivo.
Procedure: Dosage: among 3 groups, the dosages of L538 were set at 5, 10 and 20 mg/kg as the high, middle and low dosages, respectively, administrating intravenously 3 times a week; while MMC was administrated intravenously at the first day whit a dosage of 5 mg/kg.
Animals: BALB/CA nude mice, male, 40-45 days old, body weight: 18±1 g, provided by Shanghai Institute of Materia Medica, Chinese Academy of Sciences. […] Animal number in each group: 7 in negative control group, and 4 in administration group.
The amount of inoculated cells was 5×10^6. After the transplanted tumor was formed by inoculation, it was used after passed for 3 generations in nude mice.
Experimental procedure: tumor tissue in productive phase was cut into nubs of about 1.5 mm^3. Under sterile conditions, the nubs were inoculated subcutaneously in right axillary fossa of the nude mice. The diameters of the transplanted tumors on nude mice were measured by a vernier caliper. When the tumors grew up to 100-200 mm^3, the animals were divided randomly into groups. Mice in experimental groups were administered intravenously every other day. […] The total administration duration was 3 weeks. For the positive control, MMC, Mice were administered intravenously once at the first day of a week, and the total administration duration was 3 weeks. Mice in control groups were administrated physiologic saline in equivalent amount. The diameter of the tumor and weight of mice were measured twice a week. The equation for calculating the TV (tumor volume) was as follows: TV=½×a×b^2, • wherein, a is length and b is width. RTV (relative tumor volume) was calculated based on the measured results, and the equation thereof was as follows: RTV=Vt/V0 • wherein, V0 is the tumor volume measured when the mice were grouped (i.e. d0), and Vt is the tumor volume at each measurement. The evaluation index for the antitumor activity was the relative tumor proliferation rateT/C (%).
The calculation equation was as follows: T/C(%)=(TRTV/CRTV)×100, • wherein, TRTV is the RTV of therapeutic Group and CRTV is RTV of negative control group.

The structures appear in SMILES notation. Where two headings read alike, the source gives them in different places.

As a reminder, the IC50 is the midpoint of a concentration-inhibition curve. As for `CO[C@@H](C(=O)N[C@@H](C)C(=O)NCCOC(=O)C12CC3CC(CC(C3)C1)C2)[C@H](O)[C@@H](O)[C@H](O)/C=C/C(C)(C)C` [Compound L538], the IC50 in data set [1] (read-out: Cell Survival Rate IC50) turned out to be 490 nM; in data set [1] (Homo sapiens, note: MDA-MB-435S, read-out: IC50 (MDA-MB-435)), 494 ± 139 nM; in data set [1] (Homo sapiens, read-out: Cell Survival Rate IC50), 430 nM; in data set [2], 3.92 ± 1.78 µM; with DU145 (Prostatic Cancer) it was 0.14 ± 0.04 µM; in data set [3], 0.65 ± 0.21 µM. The dead nude mice result in data set [4] is “none of the experimental groups had dead nude mice”.

For the origin of these results see patent US8470763B2, “Alpha-amino-N-substituted amides, pharmaceutical composition containing them and uses thereof” (Shanghai Institute of Materia Medica Chinese Academy of …, priority 2007, dated 2013).
